# US5534533A, “Carboxylate derivatives exhibiting phospholipase A2 inhibitory activity” (Shionogi & Co., Ltd., priority 1993, dated 1996)
# pIC50: −log10 of the molar value.
# Assays:
# [1] = biological target: T1, intracellular PLA2 (cytosolic PLA2, cPLA2) (Homo sapiens, UniProt P47712); experiment: Intracellular PLA2 (cPLA2) inhibitory activity (14C-arachidonyl phosphatidylcholine substrate); format: biochemical; details: 2 μM radiolabelled phosphatidylcholine, 1 μM dioleoylglycerol, 1 mM CaCl2, pH 7.4; read-out: c-PLA2 Inhibition IC50
# T1 sequence (P47712 1-749): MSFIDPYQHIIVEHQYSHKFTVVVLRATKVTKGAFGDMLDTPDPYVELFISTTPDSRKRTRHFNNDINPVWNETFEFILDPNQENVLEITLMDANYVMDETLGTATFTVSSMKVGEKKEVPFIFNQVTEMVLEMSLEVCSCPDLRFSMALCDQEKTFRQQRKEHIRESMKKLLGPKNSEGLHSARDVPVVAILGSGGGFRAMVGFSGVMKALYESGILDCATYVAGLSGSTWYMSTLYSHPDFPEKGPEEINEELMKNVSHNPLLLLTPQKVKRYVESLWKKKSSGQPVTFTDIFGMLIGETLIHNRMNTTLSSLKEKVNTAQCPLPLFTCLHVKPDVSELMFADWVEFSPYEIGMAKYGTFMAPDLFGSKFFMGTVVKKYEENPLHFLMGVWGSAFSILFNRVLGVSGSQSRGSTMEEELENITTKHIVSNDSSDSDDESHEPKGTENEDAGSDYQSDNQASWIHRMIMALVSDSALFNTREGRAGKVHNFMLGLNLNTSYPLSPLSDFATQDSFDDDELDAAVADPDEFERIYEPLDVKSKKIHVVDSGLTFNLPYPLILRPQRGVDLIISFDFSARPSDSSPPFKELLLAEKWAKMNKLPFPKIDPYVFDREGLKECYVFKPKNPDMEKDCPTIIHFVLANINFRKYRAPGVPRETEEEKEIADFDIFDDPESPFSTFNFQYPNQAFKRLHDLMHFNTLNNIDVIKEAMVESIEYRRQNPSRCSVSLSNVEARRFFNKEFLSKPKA
# How it was run: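 Sonicated vesicles carrying 2 μM 1-palmitoyl-2-[14C]arachidonyl-phosphatidylcholine with 1 μM dioleoylglycerol served as substrate. Buffer: 50 mM Hepes pH 7.4, 150 mM NaCl, 1 mM CaCl2, 2 mM DTT, 0.1 mg/ml BSA. IC50 values were derived.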
# adjuvant arthritis = experiment: Adjuvant arthritis in rats (Mycobacterium butyricum), foot edema volume; format: in vivo, Crj/LEW male rat; details: rat, 10 mg/kg P.O. daily, 17-18 days after adjuvant; *P < 0.05 (Examples 1, 69), **P < 0.01 (Examples 2, 23, 25) to vehicle control; Example 29 unmarked
# Description: Adjuvant arthritis was induced by subcutaneously administering a suspension of 0.5 mg of Mycobacterium butyricum (Difco) in 0.05 ml of liquid paraffin to the pad of left foot of Crj/LEW male rat of 7-8 weeks age weighing 150-170 g. After administering the adjuvant, the volume of edema of both feet was daily measured by a plethysmometer. The adjuvant had been administered, and since the following day, a suspension of the test compound in 0.6% arabic gum was orally administered every day, and 17-18 days after administering the adjuvant, the volume of edema of the foot and that of foot to which no adjuvant had been administered were compared with each other. Volume of the edema in control group was defined as 100%, which value was obtained by subtracting the volume of foot of normal rat (1.2 ml) from the volume measured, and inhibitory percent obtained by using the inhibitor was defined as inhibitory rate. Using the inhibitory rate, effectiveness was determined by Student's-t assay.
# Human secretory PLA2 = biological target: T2, Human secretory PLA2 (Homo sapiens, UniProt P14555); experiment: Secretory PLA2 inhibitory activity (diheptanoyl thio PC substrate, absorbance at 405 nm); format: biochemical; details: diheptanoyl thio PC 1 mM, Triton X100 0.3 mM, pH 7.3, CaCl2 10 mM, 30 minutes, read-out: s-PLA2 Inhibition IC50
# T2 sequence (P14555 21-144): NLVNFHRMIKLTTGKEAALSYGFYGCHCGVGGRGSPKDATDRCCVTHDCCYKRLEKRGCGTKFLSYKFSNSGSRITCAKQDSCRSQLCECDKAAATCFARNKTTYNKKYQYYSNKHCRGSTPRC
# How it was run: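 Diheptanoyl thio-PC (1 mM) with Triton X100 (0.3 mM) and DTNB (125 μM) in Tris 25 mM pH 7.3, CaCl2 10 mM, KCl 100 mM, BSA 1.0 mg/ml. Absorbance change at 405 nm read at 30 min; percent inhibition corrected for no-enzyme blanks, IC50 from log-concentration plot.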
Structure (SMILES),pIC50 [1],pIC50 (Human secretory PLA2),"Inhibition % (To Nontreated Foot), edema volume (adjuvant arthritis) [%]"
"COc1c(C)c(OC(=O)c2c(C)c(C)c(OCCCOc3ccc(C(F)(F)F)cc3)c(C)c2OC)c(C)c(C)c1C(=O)O [Example 1, 4-[4-[3-(4-Trifluoromethylphenoxy)propyloxy]-2-methoxy-3,5,6-trimethylphenylcarboxy]-2-methoxy-3,5,6-trimethylbenzoic acid]",4.70,4.68,43.4
"COc1c(C)c(OC(=O)c2c(C)c(C)c(OCCCOc3ccc(C)cc3)c(C)c2OC)c(C)c(C)c1C(=O)O [Example 29, 4-{4-[3-(4-Methylphenoxy)propoxy]-2-methoxy-3,5,6-trimethylbenzoyloxy}-2-methoxy-3,5,6-trimethylbenzoic Acid]",5.07,4.92,33.1
"COc1c(C)c(OC(=O)c2c(C)c(C)c(OCCCOc3ccc(Cl)cc3)c(C)c2OC)c(C)c(C)c1C(=O)O [Example 23, 4-{4-[3-(4-Chlorophenoxy)propoxy]-2-methoxy-3,5,6-trimethylbenzoyloxy}-2-methoxy-3,5,6-trimethylbenzoic Acid]",5.40,5.03,66.0
"COc1c(C)c(OC(=O)c2c(C)c(C)c(OCCCOc3ccc(F)cc3)c(C)c2OC)c(C)c(C)c1C(=O)O [Example 2, 4-[4-[3-(4-Fluorophenoxy)propyloxy]-2-methoxy-3,5,6-trimethylphenylcarboxy]-2-methoxy-3,5,6-trimethylbenzoic acid]",5.05,4.74,52.3
"COc1cc(OCCCOc2c(C)c(C)c(C(=O)Oc3c(C)c(C)c(C(=O)O)c(OC)c3C)c(OC)c2C)c(C(c2ccccc2)c2ccccc2)cc1OC [Example 21, 4-[4-[3-(2-Benzhydryl-4,5-dimethoxyphenoxy)propyloxy]-2-methoxy-3,5,6-trimethylphenylcarboxy]-2-methoxy-3,5,6-trimethylbenzoic acid]",5.85,4.82,–
"CCc1ccc(OCCCOc2c(C)c(C)c(C(=O)Oc3c(C)c(C)c(C(=O)O)c(OC)c3C)c(OC)c2C)cc1 [Example 30, 4-{4-[3-(4-Ethylphenoxy)propoxy]-2-methoxy-3,5,6-trimethylbenzoyloxy}-2-methoxy-3,5,6-trimethylbenzoic Acid]",5.27,4.80,–
"COc1c(C)c(OC(=O)c2c(C)c(C)c(OCCCOc3ccc(Br)cc3Br)c(C)c2OC)c(C)c(C)c1C(=O)O [Example 26, 4-{4-[3-(2,4-Dibromophenoxy)propoxy]-2-methoxy-3,5,6-trimethylbenzoyloxy}-2-methoxy-3,5,6-trimethylbenzoic Acid]",5.59,4.82,–
"COc1c(C)c(OC(=O)c2c(C)c(C)c(OCCCCCCSc3ccc(F)cc3)c(C)c2OC)c(C)c(C)c1C(=O)O [Example 5, 4-[4-[6-(4-Fluorophenylthio)hexyloxy]-2-methoxy-3,5,6-trimethylphenylcarboxy]-2-methoxy-3,5,6-trimethylbenzoic acid]",5.40,4.33,–
"COc1c(C)c(OC(=O)c2c(C)c(C)c(OCCCSc3ccc(F)cc3)c(C)c2OC)c(C)c(C)c1C(=O)O [Example 10, 4-[4-[3-(4-Fluorophenylthio)propyloxy]-2-methoxy-3,5,6-trimethylphenylcarboxy]-2-methoxy-3,5,6-trimethylbenzoic acid]",4.89,4.89,–
"COc1c(C)c(OC(=O)c2c(C)c(C)c(OCCCOc3ccc(Br)cc3)c(C)c2OC)c(C)c(C)c1C(=O)O [Example 25, 4-{4-[3-(4-Bromophenoxy)propoxy]-2-methoxy-3,5,6-trimethylbenzoyloxy}-2-methoxy-3,5,6-trimethylbenzoic Acid]",4.89,5.34,66.0

# The next lines start with results.
pIC50 [1],pIC50 (Human secretory PLA2),Structure (SMILES),"Inhibition % (To Nontreated Foot), edema volume (adjuvant arthritis) [%]"
4.44,4.92,"COc1c(C)c(OC(=O)c2c(C)c(C)c(OCCCN3CCN(c4ccc(F)cc4)CC3)c(C)c2OC)c(C)c(C)c1C(=O)O [Example 69, 4-{4-[3-(4-(4-Fluorophenyl)piperazin-1-yl)propoxy]-2-methoxy-3,5,6-trimethylbenzoyloxy}-2-methoxy-3,5,6-trimethylbenzoic Acid]",24.6
5.29,4.77,"COc1c(C)c(OC(=O)c2c(C)c(C)c(OCCCN3CCN(C(c4ccccc4)c4ccccc4)CC3)c(C)c2OC)c(C)c(C)c1C(=O)O [Example 67, 4-{4-[3-(Di-Phenylmethylpiperazin-1-yl)propoxy]-2-methoxy-3,5,6-trimethylbenzoyloxy}-2-methoxy-3,5,6-trimethylbenzoic Acid]",–
4.68,5.35,COc1c(C)c(OC(=O)c2c(C)c(C)c(OCCCN(S(C)(=O)=O)S(=O)(=O)c3ccccc3)c(C)c2OC)c(C)c(C)c1C(=O)O [Example 52],–
< 4.30,4.55,"COc1c(C)c(OC(=O)c2c(C)c(C)c(OCCCN(S(C)(=O)=O)S(C)(=O)=O)c(C)c2OC)c(C)c(C)c1C(=O)O [Example 60, 4-[4-(3-bis-Methylsulfonylaminopropoxy)-2-methoxy-3,5,6-trimethylbenzoyloxy]-2-methoxy-3,5,6-trimethylbenzoic Acid]",–
4.51,5.30,"COc1c(C)c(OC(=O)c2c(C)c(C)c(OCCCOc3ccc(C(N)=O)cc3)c(C)c2OC)c(C)c(C)c1C(=O)O [Example 42, 4-{4-[3-(4-Carbamoylphenoxy)propoxy]-2-methoxy-3,5,6-trimethylbenzoyloxy}-2-methoxy-3,5,6-trimethylbenzoic Acid]",–
5.60,4.92,"COc1c(C)c(OC(=O)c2c(C)c(C)c(OCCCN(Cc3ccccc3)Cc3ccccc3)c(C)c2OC)c(C)c(C)c1C(=O)O [Example 63, 4-{4-[3-(bis-Benzylamino)propoxy]-2-methoxy-3,5,6-trimethylbenzoyloxy}-2-methoxy-3,5,6-trimethylbenzoic Acid]",–
